Experimental data taken from patent US10173974B1, “Natural product-based synthesis of novel anti-infective isothiocyanate- and isoselenocyanate-functionalized amphilectane diterpenes” (priority 2015, dated 2019).
Converted amounts (≈) assume the structure as drawn. Where two headings read alike, the source gives them in different places.

Legend:
[1] = system: Vero cell line ATCC CRL-1586
[2] = system: P. falciparum 3D7 (chloroquine-sensitive); assay: SYBR Green parasite proliferation assay, P. falciparum 3D7 strain; assay type: cell-based, Plasmodium falciparum
Mtb H37Rv (ATCC 27 294) = assay: Microplate Alamar blue assay (MABA), antitubercular activity; assay type: cell-based, Mycobacterium tuberculosis; conditions: for MABA MIC: Mtb H37Rv
[3] = system: P. falciparum Dd2 (drug resistant); assay: SYBR Green parasite proliferation assay, P. falciparum Dd2 strain; assay type: cell-based, Plasmodium falciparum
in vitro = conditions: African green monkey
[4] = P. falciparum 3D7 (chloroquine-sensitive), 72 h incubation, in vitro growth inhibition
[5] = P. falciparum Dd2 (drug resistant), 72 h incubation, in vitro growth inhibition

## 8-Isothiocyano-15-isoselenocyano-11(20)-amphilectene (3) and 8-Isoselenocyano-15-isothiocyano-11(20)-amphilectene (4) [Compound 3 and 4]
[1]
  CC50: 78.1 µM

## C=C(C)C[C@@H]1C[C@H](C)[C@H]2CC[C@H](C)[C@@]3(N=C=[Se])CCC(=C)[C@@H]1[C@H]23 [Compound 6, 8-Isoselenocyanoamphilecta-11(20),15-diene]
[2]
  IC50: 0.189 µM
Mtb H37Rv (ATCC 27 294)
  MABA MIC: 2.1 µM
[3]
  IC50: 0.149 µM

## C=C1CC[C@@]2(N=C=S)[C@H]3[C@H](CC[C@@H]2C)[C@@H](C)C[C@@H](CC(C)(C)N=C=S)[C@H]13 [Compound 2, 8,15-Diisothiocyano-11(20)-amphilectene]
[2]; [4]
  IC50: 11.8 µM
Mtb H37Rv (ATCC 27 294)
  MABA MIC: 99.1 µM
[3]; [5]
  IC50: 11.6 µM

## C=C1CC[C@@]2(N=C=[Se])[C@H]3[C@H](CC[C@@H]2C)[C@@H](C)C[C@@H](CC(C)(C)N=C=[Se])[C@H]13 [Compound 5, 8,15-Diisoselenocyano-11(20)-amphilectene]
[2]; [4]
  IC50: 0.0025 µM
Mtb H37Rv (ATCC 27 294)
  MABA MIC: 3.9 µM
[3]; [5]
  IC50: 0.0066 µM

## CCN(CC)CCCC(C)Nc1ccnc2cc(Cl)ccc12 (centres unmarked) [CQ, chloroquine, reference compound]
[2]; Plasmodium falciparum, P. falciparum 3D7 (chloroquine-sensitive), 72 h incubation, in vitro growth inhibition
  IC50: 0.0109 µM
[3]; Plasmodium falciparum, P. falciparum Dd2 (drug resistant), 72 h incubation, in vitro growth inhibition
  IC50: 0.0519 µM

## CO[C@H]1/C=C/O[C@@]2(C)Oc3c(C)c(O)c4c(O)c(c(/C=N/N5CCN(C)CC5)c(O)c4c3C2=O)NC(=O)/C(C)=C\C=C\[C@H](C)[C@H](O)[C@@H](C)[C@@H](O)[C@@H](C)[C@H](OC(C)=O)[C@@H]1C [RMP, rifampicin, reference compound]
Mtb H37Rv (ATCC 27 294); Mycobacterium tuberculosis, read-out: MABA MIC
  MIC: 0.09 µM (≈ 0.0741 µg/mL)
In vitro
  CC50: > 100 µM

## [C-]#[N+]C(C)(C)CC1CC(C)C2CCC(C)C3([N+]#[C-])CCC(=C)C1C23 (single isomer, unassigned; (-)) [Compound 1, (−)-8,15-diisocyano-11(20)-amphilectene, reference compound]
[2]; [4]
  IC50: 0.0012 µM
Mtb H37Rv (ATCC 27 294)
  MABA MIC: 9.8 µM
[3]; [5]
  IC50: 0.0031 µM
